From US20250367229A1, “Treatment of Immune-Related Disorders, Kidney Disorders, Liver Disorders, Hemolytic Disorders, and Oxidative Stress-Associated Disorders Using NRH, NARH and Reduced Derivatives Thereof” (MitoPower LLC, priority 2021, published 2025)

Tested on: RBC hemoglobin
Test: H2O2-induced oxidative changes of RBC hemoglobin in vitro (spectral scans)
Format: cell-based, human
Protocol: A 4 M stock solution of sodium azide was prepared. One mL of the 4 M stock azide solution was diluted with 9 mL of phosphate-buffered saline (PBS, pH 7.4) to obtain a 0.4 M stock solution, which was further diluted with PBS to obtain a 0.01 M working solution of sodium azide. Eight mL of whole blood was collected in buffered acid citrate dextrose tubes from a healthy human donor. PBS was added to 500 μL of whole blood. The samples were centrifuged, and then the supernatant from each tube was discarded to obtain a red blood cell (RBC) pellet. Ten μL of 0.01 M sodium azide working solution was added to 20 μL of RBC suspension. Twenty μL of hydrogen peroxide (H2O2) diluted in PBS was added to the RBC suspension to obtain final concentrations of H2O2 ranging from 0.01 mM to 100 mM. The samples were incubated at 37° C. for 1.5 hr. 950 μL of de-ionized water was added to the samples, which were then incubated for 10 min to lyse the RBCs and obtain hemoglobin upon centrifugation at 1,500 g. Spectral scans of the lysed samples between 200 nm and 1100 nm were obtained in 2 nm increments, using a Systronics® dual-beam UV-spectrophotometer and de-ionized water as a blank. Samples incubated with PBS at 37° C. for 1-1.5 hr were used as controls to establish the oxidative effects of H2O2 on RBC hemoglobin. Absorbance at 576 nm is a measure of hemoglobin concentration in a sample, and oxidation of hemoglobin to methemoglobin results in a drop in absorbance at 576 nm and an increase in absorbance at 630 nm. Fantao et al., Anal. Biochem., 521:11-19, (2017). Stock solutions of NRH (29.6 mM) and NR (18.3 mM) were prepared in 0.9% normal saline. Appropriate quantities of the stock NRH or NR solution and PBS were added to 500 μL of whole blood to obtain final concentrations of NRH or NR ranging from 1 μM to 1000 μM. The whole blood samples with NRH or NR were mixed gently and incubated at 37° C. for 1-1.5 hr. The samples were centrifuged, and then the supernatant was discarded to obtain an RBC pellet for each sample.

## NC(=O)C1=CN([C@@H]2O[C@H](CO)[C@@H](O)[C@H]2O)C=CC1 [NRH, N-(β-D-ribofuranosyl)dihydronicotinamide]
RBCs exposed to 1 mM H2O2, 1 μM or 100 μM NRH, NR data not shown
  A576/A630 ratio (a measure of the hemoglobin/methemoglobin ratio): restored
pre-incubation of RBCs with 1, 10 and 100 µM
  protection of hemoglobin from 1 mM H2O2-induced oxidative changes (amplitude of absorbance peaks at 576, 540, 434, 348 and 270 nm): protected hemoglobin
